From US9314046B2, “Flavor-improving method” (TAKASAGO INTERNATIONAL CORPORATION, priority 2011, dated 2016)

Experiment: Evaluation of flavor-improving effects by addition of γ-aminobutyric acid and naringenin (sensory, 3 evaluators)
Type: in vivo
Set-up: key to Evaluation (grade): VP (very poor): worse than base; P (poor): difference from base not acknowledged, insufficient effects; G (good): different from base, favorable flavor; E (excellent): significantly different from base, very favorable flavor
Procedure: (1) Evaluation of Flavor-Improving Effects by Addition of γ-Aminobutyric Acid and Naringenin
To a base of a 0.05% aqueous solution of Rebaudio J-100, γ-aminobutyric acid (product name: 4-amino-n-butyric acid, produced by Nacalai Tesque, Inc.) and naringenin (product name: Naringenin, produced by LKT Laboratories, Inc.) were individually added in the amounts as described in the following table, and the flavor-improving effects thereof were evaluated.

[1] = naringenin alone 0.0010 ppb in base
[2] = naringenin alone 0.0100 ppb in base
[3] = naringenin alone 460.0000 ppb in base

NCCCC(=O)O [GABA, γ-aminobutyric acid]
Reduced total taste: Evaluation (comment in words) (GABA alone 1.0000 ppb in base)
P: Evaluation (grade) (GABA alone 0.0100 ppb in base) | Evaluation (grade) (GABA alone 0.1000 ppb in base) | Evaluation (grade) (GABA alone 1.0000 ppb in base) | Evaluation (grade) (GABA alone 10.0000 ppb in base) | Evaluation (grade) (GABA alone 100.0000 ppb in base) | Evaluation (grade) (GABA alone 500.0000 ppb in base)
VP: Evaluation (grade) (GABA alone 1000.0000 ppb in base) | Evaluation (grade) (GABA alone 10000.0000 ppb in base)
Not different from base: Evaluation (comment in words) (GABA alone 0.0100 ppb in base) | Evaluation (comment in words) (GABA alone 0.1000 ppb in base)

O=C1C[C@@H](c2ccc(O)cc2)Oc2cc(O)cc(O)c21 [naringenin]
Not different from base: Evaluation (comment in words) [1] | Evaluation (comment in words) [2]
Bitterness left in mouth: Evaluation (comment in words) [3]
P: Evaluation (grade) [1] | Evaluation (grade) [2] | Evaluation (grade) (naringenin alone 0.1000 ppb in base) | Evaluation (grade) (naringenin alone 1.0000 ppb in base) | Evaluation (grade) (naringenin alone 10.0000 ppb in base) | Evaluation (grade) [3] | Evaluation (grade) (naringenin alone 1000.0000 ppb in base) | Evaluation (grade) (naringenin alone 10000.0000 ppb in base)
